# According to patent US20250144067A1, “PERSONALIZED STARVATION THERAPY FOR CANCER” (Faeth Therapeutics, Inc., priority 2021, published 2025):
# Where a name gives a salt, the structure may show the parent alone.
# Assays:
# [1] = system: NCI-H292 lung cancer cells; experiment: FDA drug screening, complete media vs cholesterol-free media without statin (TABLE 1); format: cell-based, human
# [2] = system: NCI-H292 lung cancer cells; experiment: FDA drug screening, complete media vs cholesterol-free media with simvastatin (TABLE 2); format: cell-based, human; conditions: for Cholesterol-free media + simvastatin (0.04 μM) / Complete Media: NCI-H292 cells
# [3] = Complete minus Cholesterol-free, greater than 0 enhanced anti-cancer activity, about 0 neutral, below 0 antagonist
# [4] = NCI-H292 cells, FDA drug library screen, cholesterol-free media without statin
# [5] = NCI-H292 cells, FDA drug library screen, complete media
# [6] = FDA drug library screen, cholesterol-free media with simvastatin 0.04 μM
# [7] = FDA drug library screen, complete media
# [8] = complete media vs cholesterol-free media + simvastatin (0.04 μM), >0 enhanced anti-cancer activity, about 0 neutral, <0 antagonist
# [9] = FDA library drug in cholesterol-free media with simvastatin 0.04 μM
# [10] = FDA library drug in complete media
# [11] = Complete minus Cholesterol-free, >0 enhanced anti-cancer activity, about 0 neutral, <0 antagonist
# [12] = NCI-H292 cells, cholesterol-free media without statin, FDA drug library screen
# [13] = NCI-H292 cells, complete media, FDA drug library screen
# [14] = complete media minus cholesterol-free media + simvastatin, >0 enhanced anti-cancer activity, about 0 neutral, <0 antagonist
# [15] = Complete minus Cholesterol-free, […]
# [16] = Complete minus Cholesterol-free, greater than 0 enhanced anti-cancer activity, about 0 neutral, below 0 antagonists
# [17] = NCI-H292 cells in cholesterol-free media without statin
# [18] = NCI-H292 cells in complete media
# [19] = cholesterol-free media with simvastatin 0.04 μM, FDA drug library screen (TABLE 2)
# [20] = complete media, FDA drug library screen (TABLE 2)
# [21] = complete media minus cholesterol-free media + simvastatin (0.04 μM), >0 enhanced anti-cancer activity, about 0 neutral, <0 antagonist
# [22] = drug in cholesterol-free media with simvastatin 0.04 μM
# [23] = NCI-H292 cells, cholesterol-free media without statin
# [24] = cholesterol-free media with simvastatin 0.04 μM, cell growth value in FDA drug screen
# [25] = complete media, cell growth value in FDA drug screen
# [26] = complete vs cholesterol-free media, >0 enhanced anti-cancer activity, about 0 neutral, <0 antagonist
molecule,measurement,setting,value
C[C@@H](O)[C@H]1C(=O)N2C(C(=O)[O-])=C(SC3Cn4cnc[n+]4C3)[C@H](C)[C@H]12 (some centres unmarked) [Biapenem],Difference,[1]; [3],−0.11
same,Cholesterol-free,[1]; [4],0.9795
same,Complete,[1]; [5],0.8733
same,Cholesterol-free media + simvastatin (0.04 μM),[2]; [6],1.249
same,Complete Media,[2]; [7],1.117
same,Difference,[2]; [8],−0.13
C[N+](C)(C)CCOP(=O)([O-])OC[C@H](O)CO [sn-Glycero-3-phosphocholine],Difference,[1]; [3],−0.10
same,Cholesterol-free,[1]; [4],0.9108
same,Complete,[1]; [5],0.8124
same,Cholesterol-free media + simvastatin (0.04 μM),[2]; [9],0.9593
same,Complete Media,[2]; [10],0.5999
same,Difference,[2]; [8],−0.36
Cn1c(Cn2ccc(C(F)(F)F)c(Oc3cc(Cl)cc(C#N)c3)c2=O)n[nH]c1=O [Doravirine],Difference,[1]; [11],0.06
same,Cholesterol-free,[1]; [12],0.8163
same,Complete,[1]; [13],0.8734
same,Cholesterol-free media + simvastatin (0.04 μM),[2]; [6],1.425
same,Complete Media,[2]; [7],1.562
same,Difference,[2]; [14],0.14
COc1cc2nc(N3CCN(C(=O)[C@@H]4CCCO4)CC3)nc(N)c2cc1OC [(S)-Terazosin],Difference,[1]; [11],0.01
same,Cholesterol-free,[1]; [12],0.9099
same,Complete,[1]; [13],0.9163
same,Cholesterol-free media + simvastatin (0.04 μM),[2]; [6],0.9768
same,Complete Media,[2]; [7],0.8794
same,Difference,[2]; [8],−0.10
CC[C@@]1(O)C(=O)OCc2c1cc1n(c2=O)Cc2cc3cc(O)ccc3nc2-1 [(S)-10-Hydroxycamptothecin],Difference,[1]; [15],0.01
same,Cholesterol-free,[1]; [12],0.01962
same,Complete,[1]; [13],0.02742
same,Cholesterol-free media + simvastatin (0.04 μM),[2]; [6],0.2337
same,Complete Media,[2]; [7],0.138
same,Difference,"[2]; complete media vs cholesterol-free media + simvastatin (0.04 μM), […]",−0.10
CC(C)OC(=O)CCC/C=C\C[C@@H]1[C@@H](/C=C/[C@@H](O)COc2cccc(C(F)(F)F)c2)[C@H](O)C[C@@H]1O [Travoprost],Difference,[1]; [16],−1.01
same,Cholesterol-free,[1]; [17],1.92
same,Complete,[1]; [18],0.9075
same,Cholesterol-free media + simvastatin (0.04 μM),[2]; [19],0.9352
same,Complete Media,[2]; [20],0.8818
same,Difference,[2]; [21],−0.05
CC1(S(=O)(=O)[O-])CC(=O)c2ccccc2C1=O.[Na+] (centres unmarked) [Menadione bisulfite (sodium)],Difference,[1]; [11],0.03
same,Cholesterol-free,[1]; [12],1.466
same,Complete,[1]; [13],1.492
same,Cholesterol-free media + simvastatin (0.04 μM),[2]; [22],0.991
same,Complete Media,[2]; drug in complete media,0.8295
same,Difference,[2]; [8],−0.16
Nc1c(CC(=O)O)cccc1C(=O)c1ccc(Br)cc1 [Bromfenac (sodium)],Cholesterol-free,[1]; [23],1.333
same,Complete,"[1]; NCI-H292 cells, complete media",0.9935
same,Difference,"[1]; complete vs cholesterol-free media, greater than 0 enhanced anti-cancer activity, about 0 neutral, below 0 antagonists",−0.34
same,Complete Media,[2]; [10],1.029
same,Difference,[2]; [8],−0.59
CNC[C@H](O)c1ccc(O)c(O)c1.O=C(O)C(O)C(O)C(=O)O [L-Epinephrine (Bitartrate)],Difference,[1]; [3],−0.14
same,Cholesterol-free,[1]; [4],1.247
same,Complete,[1]; [5],1.112
same,Cholesterol-free media + simvastatin (0.04 μM),[2]; [24],1.096
same,Complete Media,[2]; [25],1.136
same,Difference,[2]; [14],0.04
CN1CCCN=C1/C=C/c1cccs1.O=C(O)c1cc2ccccc2c(Cc2c(O)c(C(=O)O)cc3ccccc23)c1O [Pyrantel (pamoate)],Cholesterol-free,[1]; [12],1.079
same,Complete,[1]; [13],1.203
same,Difference,[1]; [26],0.12
same,Cholesterol-free media + simvastatin (0.04 μM),[2]; [9],1.254
same,Complete Media,[2]; [10],0.856
same,Difference,[2]; [8],−0.40
O=C(O)/C=C/c1ccc(Cn2ccnc2)cc1 [Ozagrel (hydrochloride)],Cholesterol-free,[1]; [12],0.9304
same,Complete,[1]; [13],1.021
same,Difference,[1]; [26],0.09
same,Cholesterol-free media + simvastatin (0.04 μM),[2]; [6],1.247
same,Complete Media,[2]; [7],1.131
same,Difference,[2]; [8],−0.12
COc1cc(C)c(/C=C/C(C)=C/C=C/C(C)=C/C(=O)O)c(C)c1C [Acitretin],Difference,[1]; [15],−0.08
same,Cholesterol-free,[1]; [4],0.8064
same,Complete,[1]; [5],0.7285
same,Cholesterol-free media + simvastatin (0.04 μM),"[2]; cholesterol-free media with simvastatin 0.04 μM, […]",0.7241
same,Complete Media,"[2]; complete media, […]",0.76
same,Difference,"[2]; complete media minus cholesterol-free media + simvastatin, […]",0.04
COc1ccc(-c2ccc3cc(C(=O)O)ccc3c2)cc1C12CC3CC(CC(C3)C1)C2 [Adapalene],Cholesterol-free,[1]; [12],0.6976
same,Complete,[1]; [13],1.022
same,Difference,[1]; [26],0.32
same,Cholesterol-free media + simvastatin (0.04 μM),[2]; [19],0.9237
same,Complete Media,[2]; [20],0.9286
same,Difference,[2]; [21],0.00
C[C@@H]1CCO[C@H]2Cn3cc(C(=O)NCc4ccc(F)cc4F)c(=O)c(O)c3C(=O)N12 [Dolutegravir],Difference,[1]; [11],−0.20
same,Cholesterol-free,[1]; [23],0.9033
same,Complete,"[1]; NCI-H292 cells, complete media",0.7062
same,Cholesterol-free media + simvastatin (0.04 μM),[2]; [19],0.5964
same,Complete Media,[2]; [20],0.5738
same,Difference,[2]; [21],−0.02
N#Cc1ccc2c(c1)N(CCCN1CCC(O)CC1)c1ccccc1S2 [Pericyazine],Difference,[1]; [3],−0.09
same,Cholesterol-free,[1]; [4],0.9265
same,Complete,[1]; [5],0.8353
same,Cholesterol-free media + simvastatin (0.04 μM),[2]; [19],1.378
same,Complete Media,[2]; [20],1.353
same,Difference,[2]; [21],−0.02
Gabexate (mesylate),Difference,[1]; [3],−0.15
same,Cholesterol-free,[1]; [4],1.126
same,Complete,[1]; [5],0.973
same,Cholesterol-free media + simvastatin (0.04 μM),[2]; [22],1.435
same,Complete Media,[2]; drug in complete media,1.185
same,Difference,[2]; [8],−0.25
O=C(O)CCC(=O)c1ccc(-c2ccccc2)cc1 [Fenbufen],Difference,[1]; [16],−0.96
same,Cholesterol-free,[1]; [17],1.772
same,Complete,[1]; [18],0.811
same,Cholesterol-free media + simvastatin (0.04 μM),[2]; [24],0.8759
same,Complete Media,[2]; [25],0.8928
same,Difference,[2]; [14],0.02
CC(C)[C@]12O[C@H]1[C@@H]1O[C@@]13[C@@]1(C)CCC4=C(COC4=O)[C@@H]1C[C@@H]1O[C@@]13C2=O [Triptonide],Difference,[1]; [15],−0.01
same,Cholesterol-free,[1]; [12],0.01808
same,Complete,[1]; [13],0.005807
same,Cholesterol-free media + simvastatin (0.04 μM),[2]; [19],0.02446
same,Complete Media,[2]; [20],0.02522
same,Difference,"[2]; complete media minus cholesterol-free media + simvastatin (0.04 μM), […]",0.00
O=C(c1ccc(OCCN2CCCCC2)cc1)c1c(-c2ccc(O)cc2)sc2cc(O)ccc12 [Raloxifene (hydrochloride)],Cholesterol-free,[1]; [12],0.9028
same,Complete,[1]; [13],1.184
same,Difference,[1]; [26],0.28
same,Cholesterol-free media + simvastatin (0.04 μM),[2]; [6],0.3884
same,Complete Media,[2]; [7],0.7486
same,Difference,[2]; [14],0.36
COc1cccc(-c2c(C)n(Cc3c(F)cccc3C(F)(F)F)c(=O)n(C[C@H](NCCCC(=O)O)c3ccccc3)c2=O)c1F [Elagolix sodium],Difference,[1]; [16],−0.93
same,Cholesterol-free,[1]; [17],1.728
same,Complete,[1]; [18],0.7978
same,Cholesterol-free media + simvastatin (0.04 μM),[2]; [6],1.413
same,Complete Media,[2]; [7],1.627
same,Difference,[2]; [14],0.21
OC[C@H]1O[C@@H](c2ccc(Cl)c(Cc3ccc(O[C@H]4CCOC4)cc3)c2)[C@H](O)[C@@H](O)[C@@H]1O [Empagliflozin],Cholesterol-free,[1]; [12],0.7937
same,Complete,[1]; [13],1.112
same,Difference,[1]; [26],0.32
same,Cholesterol-free media + simvastatin (0.04 μM),[2]; [6],0.9749
same,Complete Media,[2]; [7],0.8261
same,Difference,[2]; [8],−0.15
O=C(O)c1ccccc1Nc1cccc(C(F)(F)F)c1 [Flufenamic acid],Difference,[1]; [11],−0.24
same,Cholesterol-free,[1]; [23],1.258
same,Complete,"[1]; NCI-H292 cells, complete media",1.021
same,Cholesterol-free media + simvastatin (0.04 μM),[2]; [22],1.298
same,Complete Media,[2]; drug in complete media,1.077
same,Difference,[2]; [8],−0.22
